{"source": "patent US7501399B2", "about": "“Immunoeffector compounds” (Corixa Corporation, priority 2000, dated 2009)", "key": {"Rabbit pyrogen test": {"experiment": "Rabbit pyrogen test", "type": "in vivo", "conditions": "i.v. 10 μg/Kg dose", "text": "In an effort to obtain an immunostimulant that has low pyrogenicity, synthetic molecules have been prepared which share structural similarities with the MPL® immunostimulant (see U.S. patent application Ser. No. 09/810,915, Filed on Mar. 16, 2001, and the present invention). These novel molecules which are collectively called aminoalkyl glucosaminide phosphates (AGPs), consist of an acylated […] moiety linked to an acylated aminoalkyl group (Johnson et al. (1999) Bioorg. Med. Chem. Lett. 9: 2273-2278; PCT/WO98/50399 and references therein). […] The substitution of different chemical moieties within the aminoalkyl structures was designed into the AGPs in anticipation of optimizing stability and solubility properties. Thus the AGPs can be broadly separated into several families based on the structure of their aminoalkyl groups. […] Here we report on studies of the adjuvant properties of a class of AGPs which induce minimal activity in both the rabbit pyrogen test and the ex vivo cytokine assay."}, "TNF-α": {"tested_on": "TNF-α", "experiment": "Ex vivo cytokine induction in human whole blood, TNF-α sandwich ELISA", "type": "cell-based", "conditions": "1, 5 and 10 μg/ml in the assay; 4 hr at 37° C.", "method": "(§1) The effects of RC-553 on the elaboration of TNF-α and IL-1β was measured under ex vivo conditions on human peripheral blood mononuclear cells. MPL® immunostimulant and RC-553 were formulated in aqueous solutions of 0.2% TEoA/WFI.\n(§2) Human whole blood was used to evaluate the ability of glycolipids (AGPs) to induce proinflammatory cytokines. Human whole blood is collected into heparinized tubes and 0.45 ml of whole blood is admixed with 0.05 ml phosphate buffered saline (PBS, pH 7.4) containing the glycolipid (i.e., the test compounds). The tubes are incubated for 4 hr at 37° C. on a shaker apparatus. The samples are then diluted with 1.5 ml sterile PBS and centrifuged. The supernatants are removed and analyzed for […] TNF-α and IL-1β by sandwich ELISA using R&D Systems' Quantikine immunoassay kits for human TNF-α and IL-1β."}, "IL-1β": {"tested_on": "IL-1β", "experiment": "Ex vivo cytokine induction in human whole blood, IL-1β sandwich ELISA", "type": "cell-based", "method": "as §1, §2"}, "[1]": {"tested_on": "HBsAg (Hepatitis B Surface Antigen)", "experiment": "Adjuvant activity towards HBsAg, serum titers by ELISA (Example 2)", "type": "in vivo, BALB/c mice", "method": "Vaccines were prepared by mixing the adjuvant-containing TEoA (triethanolamine) formulations with recombinant HBsAg. Titers to HBsAg were determined by ELISA from pooled sera (5 mice/group) collected 21 days post-secondary vaccination (Table 1). The nonimmune controls were not vaccinated."}, "HBsAg": {"tested_on": "HBsAg", "experiment": "Adjuvant activity towards HBsAg, IgG1 and IgG2a isotype titers by ELISA (Example 4)", "type": "in vivo, BALB/c mice", "method": "IgG1 and IgG2a isotype titers to HBsAg were determined by ELISA from pooled sera collected 21 days post secondary (Table 3). The nonimmune controls were not vaccinated. […] RC-553 stimulated titers equivalent to the positive controls, MPL® immunostimulant (Table 3)."}, "iNOS": {"tested_on": "iNOS", "experiment": "iNOS induction in IFN-γ primed J774 murine macrophages, Greiss reagent nitrite release", "type": "cell-based", "conditions": "J774 cells primed with IFN-γ", "method": "This example illustrates the effects of various glycolipids on iNOS induction in J774 murine macrophages. The murine macrophage cell line J774 can be primed by IFN-γ in vitro and is very responsive to subsequent LPS stimulation of iNOS upregulation as measured by a standard Greiss reagent ELISA assay procedure. The assay utilizes J774 cells seeded at 1×10^6/mL with 30 mL/flask and with IFN-γ added at 100 units/mL for 16-24 hrs. Cells are then harvested and washed and resuspended at 2×10^5/well in a 96-well plate and allowed to adhere. Glycolipid compounds are serially diluted into the wells for a test group and the resulting cultures are incubated for another 36-40 hrs before culture supernatants are collected from Greiss reagent analysis of nitrite release (Green et al. (1982) Anal. Biochem. 126: 131-138). Nitrite content closely parallels iNOS function.\nPotency was determined as the concentration (ng/mL) of glycolipid in culture capable of inducing one-half maximal induction of nitrite (ED50). The lower the ED50 number, the greater the potency for iNOS induction. The ED50 was cacluated according to methods set out in Johnson et al., (1999) J Med Chem. 42: 4640-4649."}, "[2]": {"conditions": "anti-HBsAg, 2 μg HBsAg + 20 μg adjuvant s.c. day 0 and 21, pooled sera 21 days post-secondary"}, "[3]": {"conditions": "anti-HBsAg, 2.0 μg HBsAg + 25 μg adjuvant s.c. day 0 and 21, pooled sera 21 days post secondary"}}}
{"substance": "N—[(R)-3-Tetradecanoyloxytetradecanoyl]-(S)-2-pyrrolidinomethyl 2-Deoxy-4-O-phosphono-2-[(R)-3-tetradecanoyloxytetradecanoylamino]-3-O—[(R)-3-tetradecanoyloxytetradecanoyl]-β-D-glucopyranoside Triethylammonium Salt [RC-553]", "values": [{"measurement": "Pyrogenicity (total rise in ° C. of 3 rabbits)", "setting": "Rabbit pyrogen test; Table 2", "value": 0.3, "unit": "°C"}, {"measurement": "Pyrogenicity (total rise in ° C. of 3 rabbits)", "setting": "Rabbit pyrogen test; Table 3", "value": 0.3, "unit": "°C"}, {"measurement": "Pyrogenicity (total rise in ° C. of 3 rabbits)", "setting": "Rabbit pyrogen test; Table 4", "value": 0.3, "unit": "°C"}, {"measurement": "Pyrogenicity (total rise in ° C. of 3 rabbits)", "setting": "Rabbit pyrogen test; solubilized in 10% EtOH/WFI, diluted with 5% dextrose in water, Table 1", "value": 0.3, "unit": "°C"}, {"measurement": "Levels of TNF-α produced", "setting": "TNF-α", "value": "did not produce levels of TNF-α that could be detected"}, {"measurement": "Levels of IL-1β produced", "setting": "IL-1β; 1, 5, and 10 μg/ml, 4 hr at 37° C.", "value": "did not produce detectable levels of IL-1β"}, {"measurement": "Relative induction of cytokines (IL-1β), MPL® immunostimulant assigned a value of 1", "setting": "IL-1β; relative to MPL® immunostimulant = 1", "value": "≤ 0.05"}, {"measurement": "anti-HBsAg responses (serum titers) versus antigen alone", "setting": "[1]; Example 2", "value": "significantly higher than control sera receiving antigen alone"}, {"measurement": "Serum Titers IgG", "setting": "[1]; [2]", "value": "409,600"}, {"measurement": "Serum Titers IgG1", "setting": "[1]; [2]", "value": "204,800"}, {"measurement": "Serum Titers IgG2a", "setting": "[1]; [2]", "value": "409,600"}, {"measurement": "Serum Titers IgG2b", "setting": "[1]; [2]", "value": "51,200"}, {"measurement": "HBsAg titers versus control group which received antigen in PBS", "setting": "HBsAg; Example 4", "value": "increased titers compared to the control group"}, {"measurement": "Serum Titers IgG1", "setting": "HBsAg; [3]", "value": "32,000"}, {"measurement": "Serum Titers IgG2a", "setting": "HBsAg; [3]", "value": "2,048,000"}, {"measurement": "Maximal iNOS activity / iNOS induction", "setting": "iNOS", "value": "essentially inactive"}]}
